What was measured:
Axl = target: T1, Axl (Homo sapiens, UniProt P30530); assay: Biochemical potency, HTRF KinEASE-TK kinase assay; design: purchased Invitrogen; settings: 5 nM AXL, 700 μM ATP
T1 sequence (P30530 26-894): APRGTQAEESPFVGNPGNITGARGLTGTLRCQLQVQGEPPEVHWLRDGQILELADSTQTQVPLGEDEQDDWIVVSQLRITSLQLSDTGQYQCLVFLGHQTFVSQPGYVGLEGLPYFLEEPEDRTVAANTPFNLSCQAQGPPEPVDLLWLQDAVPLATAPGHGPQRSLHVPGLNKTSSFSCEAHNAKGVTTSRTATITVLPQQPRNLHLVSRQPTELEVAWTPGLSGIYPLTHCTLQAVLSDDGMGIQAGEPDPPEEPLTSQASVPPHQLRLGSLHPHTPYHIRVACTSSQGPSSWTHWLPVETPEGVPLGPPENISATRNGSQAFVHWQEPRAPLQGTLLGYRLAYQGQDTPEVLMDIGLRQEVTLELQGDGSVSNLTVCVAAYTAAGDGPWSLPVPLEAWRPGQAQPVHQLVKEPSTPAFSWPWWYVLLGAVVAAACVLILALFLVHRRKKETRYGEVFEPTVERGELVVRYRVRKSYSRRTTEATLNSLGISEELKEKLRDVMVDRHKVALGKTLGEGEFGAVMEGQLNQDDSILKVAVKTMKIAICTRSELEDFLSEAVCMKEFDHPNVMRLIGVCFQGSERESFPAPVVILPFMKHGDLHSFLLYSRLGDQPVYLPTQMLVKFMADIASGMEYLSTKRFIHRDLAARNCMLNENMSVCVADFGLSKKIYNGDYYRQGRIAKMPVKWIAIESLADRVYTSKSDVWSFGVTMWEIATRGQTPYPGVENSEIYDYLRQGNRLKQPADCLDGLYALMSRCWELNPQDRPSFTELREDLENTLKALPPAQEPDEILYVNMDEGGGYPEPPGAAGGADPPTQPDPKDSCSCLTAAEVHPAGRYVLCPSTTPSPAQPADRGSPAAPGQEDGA
Summary of the method: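 Phosphorylation of a biotinylated tyrosine-kinase peptide (800 nM) by AXL (5 nM) or TYRO3/MER (1 nM) is measured at 700 µM ATP after 2 h at room temperature, following 1 h enzyme–compound preincubation. Signal is the time-resolved FRET ratio, converted to percent activity.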

p-AXL = target: T2, p-AXL (Homo sapiens, UniProt P30530); assay: Axl phosphorylation inhibition ELISA in HEK293T cells transfected with NanoLuc-tagged AXL; format: cell-based; settings: 1 h compound incubation, media (OptiMEM)
T2 construct: expressed in transfected cells; host or cells: HEK293T
T2 sequence (P30530 26-894): T1 sequence (P30530 26-894)
Summary of the method: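 Phospho-AXL detected by luminescence of NanoLuc tag after capture of cell lysate on biotinylated anti-phospho-tyrosine mAb plates (2 h). Lysates came from transiently transfected HEK293T cells treated 1 h at 37° C with serial 2-fold dilutions (22 points). IC50 by standard 4-parameter logistic fitting.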

Row | IC50 (Axl) [nM] | IC50 (p-AXL) [nM] | SMILES
1 | < 100 | < 100 | Cc1ccnnc1-c1ccc(-c2n[nH]c3ncc(-c4ccc5c(c4)CC[C@@H](N4C6COCC4C6)CC5)cc23)cc1 [Example 176, 6-[(7S)-2-{3-[4-(4-Methylpyridazin-3-yl)phenyl]-1H-pyrazolo[3,4-b]pyridin-5-yl}-6,7,8,9-tetrahydro-5H-benzo[7]annulen-7-yl]-3-oxa-6-azabicyclo[3.1.1]heptane]
2 | < 100 | 100 to 1000 | CN(C)C(=O)c1cccc(-c2ccc(-c3n[nH]c4ncc(-c5ccc6c(c5)CC[C@@H](N5C7COCC5C7)CC6)cc34)cc2)n1 [Example 94, N,N-Dimethyl-6-(4-{5-[(7S)-7-{3-oxa-6-azabicyclo[3.1.1]heptan-6-yl}-6,7,8,9-tetrahydro-5H-benzo[7]annulen-2-yl]-2H-pyrazolo[3,4-b]pyridin-3-yl}phenyl)pyridine-2-carboxamide]
3 | < 100 | 100 to 1000 | Cc1ccnc(-c2ccc(-c3n[nH]c4ncc(-c5ccc6c(c5)CC[C@@H](N5C7COCC5C7)CC6)cc34)cc2)c1 [Example 117, 6-[(7S)-2-{3-[4-(4-Methylpyridin-2-yl)phenyl]-1H-pyrazolo[3,4-b]pyridin-5-yl}-6,7,8,9-tetrahydro-5H-benzo[7]annulen-7-yl]-3-oxa-6-azabicyclo[3.1.1]heptane]
4 | < 100 | < 100 | COC[C@H]1CCN([C@H]2CCc3ccc(-c4cnc5[nH]nc(-c6ccc(-c7ncccc7C)cc6)c5c4)cc3CC2)C1 [Example 132, 2-(4-{5-[(7S)-7-[(3S)-3-(Methoxymethyl)pyrrolidin-1-yl]-6,7,8,9-tetrahydro-5H-benzo[7]annulen-2-yl]-1H-pyrazolo[3,4-b]pyridin-3-yl}phenyl)-3-methylpyridine]
5 | < 100 | < 100 | Cc1cccnc1-c1ccc(-c2c[nH]c3ncc(-c4ccc5c(c4)CC[C@@H](N4C[C@@H]6C[C@H]4CO6)CC5)cc23)cc1 [Example 187, (4S)-5-[(7S)-2-{3-[4-(3-Methylpyridin-2-yl)phenyl]-1H-pyrrolo[2,3-b]pyridin-5-yl}-6,7,8,9-tetrahydro-5H-benzo[7]annulen-7-yl]-2-oxa-5-azabicyclo[2.2.1]heptane]
6 | < 100 | 100 to 1000 | Cc1ccccc1-c1ccc(-c2n[nH]c3ncc(-c4ccc5c(c4)CC[C@@H](N4C6COCC4C6)CC5)cc23)nc1 [Example 98, 6-[(7S)-2-{3-[5-(2-Methylphenyl)pyridin-2-yl]-1H-pyrazolo[3,4-b]pyridin-5-yl}-6,7,8,9-tetrahydro-5H-benzo[7]annulen-7-yl]-3-oxa-6-azabicyclo[3.1.1]heptane]
7 | < 100 | 100 to 1000 | Cc1cccc(-c2ccc(-c3n[nH]c4ncc(-c5ccc6c(c5)CC[C@@H](N5C7COCC5C7)CC6)cc34)cc2)n1 [Example 116, 6-[(7S)-2-{3-[4-(6-Methylpyridin-2-yl)phenyl]-1H-pyrazolo[3,4-b]pyridin-5-yl}-6,7,8,9-tetrahydro-5H-benzo[7]annulen-7-yl]-3-oxa-6-azabicyclo[3.1.1]heptane]
8 | < 100 | < 100 | CN(C)C(=O)c1cccnc1-c1ccc(-c2c[nH]c3ncc(-c4ccc5c(c4)CC[C@@H](N4C6COCC4C6)CC5)cc23)cc1 [Example 165, N,N-Dimethyl-2-(4-{5-[(7S)-7-{3-oxa-6-azabicyclo[3.1.1]heptan-6-yl}-6,7,8,9-tetrahydro-5H-benzo[7]annulen-2-yl]-1H-pyrrolo[2,3-b]pyridin-3-yl}phenyl)pyridine-3-carboxamide]
9 | < 100 | < 100 | O=C1CCCCN1c1cccnc1-c1ccc(-c2n[nH]c3ncc(-c4ccc5c(c4)CC[C@@H](N4C6COCC4C6)CC5)cc23)cc1 [Example 127, 1-[2-(4-{5-[(7S)-7-{3-Oxa-6-azabicyclo[3.1.1]heptan-6-yl}-6,7,8,9-tetrahydro-5H-benzo[7]annulen-2-yl]-1H-pyrazolo[3,4-b]pyridin-3-yl}phenyl)pyridin-3-yl]piperidin-2-one]
10 | < 100 | < 100 | CN(C(=O)C1CC1)c1cccnc1-c1ccc(-c2n[nH]c3ncc(-c4ccc5c(c4)CC[C@@H](N4C6COCC4C6)CC5)cc23)cc1 [Example 128, N-Methyl-N-[2-(4-{5-[(7S)-7-{3-oxa-6-azabicyclo[3.1.1]heptan-6-yl}-6,7,8,9-tetrahydro-5H-benzo[7]annulen-2-yl]-1H-pyrazolo[3,4-b]pyridin-3-yl}phenyl)pyridin-3-yl]cyclopropanecarboxamide]
11 | < 100 | < 100 | Cc1cnc(-c2ccc(-c3n[nH]c4ncc(-c5ccc6c(c5)CC[C@@H](N5C7COCC5C7)CC6)cc34)cc2)c(C)c1 [Example 119, 6-[(7S)-2-{3-[4-(3,5-Dimethylpyridin-2-yl)phenyl]-1H-pyrazolo[3,4-b]pyridin-5-yl}-6,7,8,9-tetrahydro-5H-benzo[7]annulen-7-yl]-3-oxa-6-azabicyclo[3.1.1]heptane]
12 | < 100 | < 100 | CCc1cccnc1-c1ccc(-c2c[nH]c3ncc(-c4ccc5c(c4)CC[C@@H](N4C6COCC4C6)CC5)cc23)cc1 [Example 183, 6-[(7S)-2-{3-[4-(3-Ethylpyridin-2-yl)phenyl]-1H-pyrrolo[2,3-b]pyridin-5-yl}-6,7,8,9-tetrahydro-5H-benzo[7]annulen-7-yl]-3-oxa-6-azabicyclo[3.1.1]heptane]
13 | < 100 | 100 to 1000 | Cc1cccnc1-c1ccc(-c2c[nH]c3ncc(-c4ccc5c(c4)CC[C@@H](N[C@H]4CCCOC4)CC5)cc23)cc1 [Example 186, (3S)—N-[(7S)-2-{3-[4-(3-Methylpyridin-2-yl)phenyl]-1H-pyrrolo[2,3-b]pyridin-5-yl}-6,7,8,9-tetrahydro-5H-benzo[7]annulen-7-yl]oxan-3-amine]
14 | > 1000 | 100 to 1000 | Cc1cc(-c2ncccc2C)ccc1-c1n[nH]c2ncc(-c3ccc4c(c3)CC[C@@H](N3C5COCC3C5)CC4)cc12 [Example 30, 6-[(7S)-3-[3-[2-Methyl-4-(3-methylpyridin-2-yl)phenyl]-1H-pyrazolo[3,4-b]pyridin-5-yl]-6,7,8,9-tetrahydro-5H-benzo[7]annulen-7-yl]-3-oxa-6-azabicyclo[3.1.1]heptane]
15 | < 100 | < 100 | Cc1cccnc1-c1ccc(-c2c[nH]c3ncc(-c4ccc5c(c4)CC[C@@](C)(N4CCC[C@H]4C)CC5)cc23)cc1 [Example 172, 3-Methyl-2-(4-{5-[(7S)-7-methyl-7-[(2R)-2-methylpyrrolidin-1-yl]-6,7,8,9-tetrahydro-5H-benzo[7]annulen-2-yl]-1H-pyrrolo[2,3-b]pyridin-3-yl}phenyl)pyridine]
16 | < 100 | 100 to 1000 | Cc1cc(-c2n[nH]c3ncc(-c4ccc5c(c4)CC[C@@H](N4C6COCC4C6)CC5)cc23)ccc1-c1ccccn1 [Example 159, 6-[(7S)-2-{3-[3-Methyl-4-(pyridin-2-yl)phenyl]-2H-pyrazolo[3,4-b]pyridin-5-yl}-6,7,8,9-tetrahydro-5H-benzo[7]annulen-7-yl]-3-oxa-6-azabicyclo[3.1.1]heptane]
17 | < 100 | 100 to 1000 | c1cncc(-c2ccc(-c3c[nH]c4ncc(-c5ccc6c(c5)CC[C@@H](N5C7COCC5C7)CC6)cc34)cc2)c1 [Example 158, 6-[(7S)-2-{3-[4-(Pyridin-3-yl)phenyl]-1H-pyrrolo[2,3-b]pyridin-5-yl}-6,7,8,9-tetrahydro-5H-benzo[7]annulen-7-yl]-3-oxa-6-azabicyclo[3.1.1]heptane]
18 | < 100 | < 100 | c1ccc(-c2ccc(-c3n[nH]c4ncc(-c5ccc6c(c5)CC[C@@H](N5C7COCC5C7)CC6)cc34)cc2)nc1 [Example 154, 6-[(7S)-2-{3-[4-(Pyridin-2-yl)phenyl]-2H-pyrazolo[3,4-b]pyridin-5-yl}-6,7,8,9-tetrahydro-5H-benzo[7]annulen-7-yl]-3-oxa-6-azabicyclo[3.1.1]heptane]
19 | < 100 | 100 to 1000 | C[C@@H]1CCCN1[C@@]1(C)CCc2ccc(-c3cnc4[nH]cc(-c5ccc(-c6ccccn6)cc5)c4c3)cc2CC1 [Example 156, 2-(4-{5-[(7S)-7-Methyl-7-[(2R)-2-methylpyrrolidin-1-yl]-6,7,8,9-tetrahydro-5H-benzo[7]annulen-2-yl]-1H-pyrrolo[2,3-b]pyridin-3-yl}phenyl)pyridine]

Source: patent publication US12195482B1 (Arcus Biosciences, Inc., priority 2022, dated 2025)
